Laboratory results as given in ChEMBL document CHEMBL2062454, “SAR studies around a series of triazolopyridines as potent and selective PI3Kγ inhibitors” (Bioorg Med Chem Lett, 2012).
≈ marks a conversion by molar mass, not a printed value.

How the values were obtained:
[1] = Oral bioavailability in rat at 10 mg/kg; assay type: ADME, organism-based; settings: in vivo
[2] = system: Mus musculus; experiment: Antiarthritic activity in DBA/B10 mouse collagen-induced arthritis model assessed as reduction of clinical score at 10 mg/kg, po administered twice per day for every 12 hrs; assay type: functional; set-up: scale not given: the % may be the effect or the level left
[3] = Clearance in rat at 0.2 mg/kg, iv and 10 mg/kg, po; assay type: ADME, organism-based; settings: in vivo
[4] = Thermodynamic solubility of the compound; assay type: physicochemical; settings: read-out: Therm_solubility
[5] = biological target: Voltage-gated inwardly rectifying potassium channel KCNH2 (Homo sapiens, UniProt Q12809); experiment: Inhibition of human ERG up to 100 uM by Q-patch assay
[6] = system: Caco-2; experiment: Permeability of the compound in human Caco2 cells; assay type: ADME, cell-based
[7] = biological target: Cytochrome P450 2D6 (Homo sapiens, UniProt P10635); experiment: Inhibition of CYP2D6 up to 25 uM; assay type: ADME
[8] = system: Salmonella typhimurium; experiment: Mutagenic activity in Salmonella typhimurium TA1537 at 1667 ug/plate in presence of liver S9 fraction; assay type: toxicity, organism-based; settings: salmonella enterica subsp. enterica serovar typhimurium
[9] = biological target: Phosphatidylinositol 4,5-bisphosphate 3-kinase catalytic subunit alpha isoform (Homo sapiens, UniProt P42336); experiment: Inhibition of PI3Kalpha by high throughput chemoproteomics binding assay
[10] = biological target: Phosphatidylinositol 4,5-bisphosphate 3-kinase catalytic subunit beta isoform (Homo sapiens, UniProt P42338); experiment: Inhibition of PI3Kbeta by high throughput chemoproteomics binding assay
[11] = biological target: Cytochrome P450 2C9 (Homo sapiens, UniProt P11712); experiment: Inhibition of CYP2C9 up to 25 uM; assay type: ADME
[12] = system: Salmonella typhimurium; experiment: Mutagenic activity in Salmonella typhimurium TA100 at 1667 ug/plate in presence of liver S9 fraction; assay type: toxicity, organism-based; settings: salmonella enterica subsp. enterica serovar typhimurium
[13] = biological target: T1, Cytochrome P450 1A (Homo sapiens, UniProt P04798+P05177); experiment: Inhibition of CYP1A up to 25 uM; assay type: ADME
T1 sequence (P04798 whole entry): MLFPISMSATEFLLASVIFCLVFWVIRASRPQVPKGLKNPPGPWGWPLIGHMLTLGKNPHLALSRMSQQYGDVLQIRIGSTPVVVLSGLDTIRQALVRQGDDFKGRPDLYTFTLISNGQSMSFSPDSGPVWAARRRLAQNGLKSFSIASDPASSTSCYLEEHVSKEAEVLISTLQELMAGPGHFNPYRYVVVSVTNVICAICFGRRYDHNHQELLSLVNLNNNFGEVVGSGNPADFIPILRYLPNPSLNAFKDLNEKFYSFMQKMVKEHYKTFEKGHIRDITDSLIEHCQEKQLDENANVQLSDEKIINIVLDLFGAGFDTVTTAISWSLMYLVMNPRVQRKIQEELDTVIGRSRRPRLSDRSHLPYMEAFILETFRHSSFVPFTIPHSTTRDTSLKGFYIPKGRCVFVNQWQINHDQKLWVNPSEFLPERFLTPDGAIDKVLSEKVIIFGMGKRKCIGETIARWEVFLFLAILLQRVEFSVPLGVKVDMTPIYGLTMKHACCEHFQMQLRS
T1 sequence (P05177 whole entry): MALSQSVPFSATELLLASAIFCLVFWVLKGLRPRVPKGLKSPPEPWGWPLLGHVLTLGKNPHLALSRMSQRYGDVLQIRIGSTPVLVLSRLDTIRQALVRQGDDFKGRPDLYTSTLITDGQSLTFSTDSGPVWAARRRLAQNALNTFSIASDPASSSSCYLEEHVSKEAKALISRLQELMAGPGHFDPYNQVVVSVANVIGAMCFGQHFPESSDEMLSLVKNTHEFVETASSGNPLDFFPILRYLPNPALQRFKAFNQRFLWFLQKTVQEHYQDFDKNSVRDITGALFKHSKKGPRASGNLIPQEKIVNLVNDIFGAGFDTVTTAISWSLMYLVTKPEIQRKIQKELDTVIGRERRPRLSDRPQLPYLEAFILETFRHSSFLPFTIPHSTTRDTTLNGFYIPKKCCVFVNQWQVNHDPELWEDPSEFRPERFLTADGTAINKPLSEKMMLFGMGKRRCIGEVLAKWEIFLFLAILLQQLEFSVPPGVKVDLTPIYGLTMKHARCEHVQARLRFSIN

[14] = system: Salmonella typhimurium; experiment: Mutagenic activity in Salmonella typhimurium TA98 at 1667 ug/plate in absence of liver S9 fraction; assay type: toxicity, organism-based; settings: salmonella enterica subsp. enterica serovar typhimurium
[15] = biological target: Cytochrome P450 2C19 (Homo sapiens, UniProt P33261); experiment: Inhibition of CYP2C19 up to 25 uM; assay type: ADME
[16] = biological target: Cytochrome P450 3A4 (Homo sapiens, UniProt P08684); experiment: Inhibition of CYP3A4 up to 25 uM; assay type: ADME
[17] = system: Salmonella typhimurium; experiment: Mutagenic activity in Salmonella typhimurium TA100 at 1667 ug/plate in absence of liver S9 fraction; assay type: toxicity, organism-based; settings: salmonella enterica subsp. enterica serovar typhimurium
[18] = system: Salmonella typhimurium; experiment: Mutagenic activity in Salmonella typhimurium TA98 at 1667 ug/plate in presence of liver S9 fraction; assay type: toxicity, organism-based; settings: salmonella enterica subsp. enterica serovar typhimurium
[19] = system: Salmonella typhimurium; experiment: Mutagenic activity in Salmonella typhimurium TA1537 at 1667 ug/plate in absence of liver S9 fraction; assay type: toxicity, organism-based; settings: salmonella enterica subsp. enterica serovar typhimurium
[20] = organism: Homo sapiens; experiment: Selectivity ratio of IC50 for PI3Kbeta to IC50 for PI3Kgamma
[21] = organism: Homo sapiens; experiment: Selectivity ratio of IC50 for PI3Kdelta to IC50 for PI3Kgamma
[22] = Clearance in rat at 1 mg/kg, iv and 5 mg/kg, po; assay type: ADME, organism-based; settings: in vivo
[23] = Half life in human microsomes; assay type: ADME, Microsome
[24] = Half life in rat microsomes; assay type: ADME, Microsome
[25] = Oral bioavailability in rat at 5 mg/kg; assay type: ADME, organism-based; settings: in vivo
[26] = biological target: Phosphatidylinositol 4,5-bisphosphate 3-kinase catalytic subunit gamma isoform (Homo sapiens, UniProt P48736); experiment: Inhibition of PI3Kgamma assessed as inhibition of C5a-induced AKT phosphorylation at Ser473 by cell based assay
[27] = Half life in mouse microsomes; assay type: ADME, Microsome

Cytochrome P450 2C9, sequence (P11712 whole entry): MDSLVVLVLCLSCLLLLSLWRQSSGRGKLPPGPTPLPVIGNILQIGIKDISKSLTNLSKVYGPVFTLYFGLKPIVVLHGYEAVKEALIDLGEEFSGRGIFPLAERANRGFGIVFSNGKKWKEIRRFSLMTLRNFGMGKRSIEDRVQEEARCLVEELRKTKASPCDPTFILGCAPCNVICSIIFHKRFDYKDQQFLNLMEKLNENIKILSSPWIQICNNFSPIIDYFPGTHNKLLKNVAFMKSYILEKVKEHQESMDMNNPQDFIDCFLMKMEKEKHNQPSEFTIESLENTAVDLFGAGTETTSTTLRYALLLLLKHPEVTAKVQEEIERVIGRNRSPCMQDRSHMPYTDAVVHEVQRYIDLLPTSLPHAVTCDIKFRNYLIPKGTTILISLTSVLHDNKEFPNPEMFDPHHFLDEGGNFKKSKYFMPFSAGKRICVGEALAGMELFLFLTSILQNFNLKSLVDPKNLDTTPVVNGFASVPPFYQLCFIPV
Voltage-gated inwardly rectifying potassium channel KCNH2, sequence (Q12809 whole entry): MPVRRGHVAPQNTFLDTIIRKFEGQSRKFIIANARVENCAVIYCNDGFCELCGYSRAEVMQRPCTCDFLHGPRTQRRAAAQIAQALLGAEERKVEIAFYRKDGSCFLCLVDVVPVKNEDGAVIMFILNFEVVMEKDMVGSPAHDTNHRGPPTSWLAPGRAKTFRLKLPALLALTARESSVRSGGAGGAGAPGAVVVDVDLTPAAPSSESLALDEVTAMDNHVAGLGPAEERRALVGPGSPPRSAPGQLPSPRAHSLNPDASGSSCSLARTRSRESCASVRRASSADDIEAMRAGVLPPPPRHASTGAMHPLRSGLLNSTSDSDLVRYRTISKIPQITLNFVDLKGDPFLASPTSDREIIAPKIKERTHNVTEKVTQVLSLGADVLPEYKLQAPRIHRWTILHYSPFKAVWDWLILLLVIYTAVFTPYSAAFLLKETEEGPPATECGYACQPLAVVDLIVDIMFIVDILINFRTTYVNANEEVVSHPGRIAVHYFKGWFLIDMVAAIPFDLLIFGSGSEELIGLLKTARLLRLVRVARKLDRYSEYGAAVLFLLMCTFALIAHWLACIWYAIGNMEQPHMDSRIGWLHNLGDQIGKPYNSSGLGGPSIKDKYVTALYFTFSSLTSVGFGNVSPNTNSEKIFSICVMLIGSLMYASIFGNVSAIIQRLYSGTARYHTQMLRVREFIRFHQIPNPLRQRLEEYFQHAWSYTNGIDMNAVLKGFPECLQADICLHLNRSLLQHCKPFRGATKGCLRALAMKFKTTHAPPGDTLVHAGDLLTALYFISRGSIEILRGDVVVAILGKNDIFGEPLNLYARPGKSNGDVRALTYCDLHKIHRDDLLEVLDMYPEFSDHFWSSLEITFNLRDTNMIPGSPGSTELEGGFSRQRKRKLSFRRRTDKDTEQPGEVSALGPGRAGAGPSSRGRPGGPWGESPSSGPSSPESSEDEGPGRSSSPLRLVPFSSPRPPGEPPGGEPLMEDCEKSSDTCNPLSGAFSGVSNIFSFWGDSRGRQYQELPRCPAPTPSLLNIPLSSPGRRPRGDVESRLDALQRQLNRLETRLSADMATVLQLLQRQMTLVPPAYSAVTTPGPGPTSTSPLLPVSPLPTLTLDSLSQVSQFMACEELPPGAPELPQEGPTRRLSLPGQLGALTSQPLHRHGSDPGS
Cytochrome P450 2D6, sequence (P10635 whole entry): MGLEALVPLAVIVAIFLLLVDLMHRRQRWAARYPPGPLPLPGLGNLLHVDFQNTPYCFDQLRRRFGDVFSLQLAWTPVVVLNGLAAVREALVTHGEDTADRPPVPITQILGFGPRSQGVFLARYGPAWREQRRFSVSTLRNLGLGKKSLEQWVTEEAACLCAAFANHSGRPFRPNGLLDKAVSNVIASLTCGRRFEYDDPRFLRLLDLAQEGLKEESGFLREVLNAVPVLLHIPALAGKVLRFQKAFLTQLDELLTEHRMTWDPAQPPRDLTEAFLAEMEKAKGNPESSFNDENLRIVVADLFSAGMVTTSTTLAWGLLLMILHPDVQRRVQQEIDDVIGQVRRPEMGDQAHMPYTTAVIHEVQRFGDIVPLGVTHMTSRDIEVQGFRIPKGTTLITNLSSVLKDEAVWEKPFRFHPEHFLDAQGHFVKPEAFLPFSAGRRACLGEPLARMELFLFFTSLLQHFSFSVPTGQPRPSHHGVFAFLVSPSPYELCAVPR
Cytochrome P450 2C19, sequence (P33261 whole entry): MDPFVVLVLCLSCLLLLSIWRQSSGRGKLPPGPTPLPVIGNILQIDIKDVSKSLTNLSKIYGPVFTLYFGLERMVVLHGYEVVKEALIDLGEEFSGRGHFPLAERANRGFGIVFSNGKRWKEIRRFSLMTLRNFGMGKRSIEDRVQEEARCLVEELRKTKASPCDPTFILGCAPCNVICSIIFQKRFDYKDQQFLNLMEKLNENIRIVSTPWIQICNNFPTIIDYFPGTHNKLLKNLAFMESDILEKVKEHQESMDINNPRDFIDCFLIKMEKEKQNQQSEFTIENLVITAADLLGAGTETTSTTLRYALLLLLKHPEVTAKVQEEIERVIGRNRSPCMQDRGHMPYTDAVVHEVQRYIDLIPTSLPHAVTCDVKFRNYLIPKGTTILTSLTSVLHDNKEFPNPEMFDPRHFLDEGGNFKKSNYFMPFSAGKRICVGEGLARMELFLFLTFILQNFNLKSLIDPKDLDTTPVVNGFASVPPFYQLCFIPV
Cytochrome P450 3A4, sequence (P08684 whole entry): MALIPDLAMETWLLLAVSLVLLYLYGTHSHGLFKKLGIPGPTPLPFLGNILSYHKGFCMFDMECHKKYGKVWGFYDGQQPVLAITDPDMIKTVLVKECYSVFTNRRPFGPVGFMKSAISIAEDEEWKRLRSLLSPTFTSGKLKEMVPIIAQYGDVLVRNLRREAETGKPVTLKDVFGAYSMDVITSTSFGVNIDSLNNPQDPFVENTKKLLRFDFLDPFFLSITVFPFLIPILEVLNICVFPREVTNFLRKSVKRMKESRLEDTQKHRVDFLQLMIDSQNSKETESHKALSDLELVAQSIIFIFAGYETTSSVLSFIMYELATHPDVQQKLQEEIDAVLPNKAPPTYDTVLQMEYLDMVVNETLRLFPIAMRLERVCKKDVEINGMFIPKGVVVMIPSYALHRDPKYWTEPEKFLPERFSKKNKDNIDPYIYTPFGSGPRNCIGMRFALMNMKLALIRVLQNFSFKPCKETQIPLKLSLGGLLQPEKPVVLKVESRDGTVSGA
Phosphatidylinositol 4,5-bisphosphate 3-kinase catalytic subunit beta isoform, sequence (P42338 whole entry, canonical isoform): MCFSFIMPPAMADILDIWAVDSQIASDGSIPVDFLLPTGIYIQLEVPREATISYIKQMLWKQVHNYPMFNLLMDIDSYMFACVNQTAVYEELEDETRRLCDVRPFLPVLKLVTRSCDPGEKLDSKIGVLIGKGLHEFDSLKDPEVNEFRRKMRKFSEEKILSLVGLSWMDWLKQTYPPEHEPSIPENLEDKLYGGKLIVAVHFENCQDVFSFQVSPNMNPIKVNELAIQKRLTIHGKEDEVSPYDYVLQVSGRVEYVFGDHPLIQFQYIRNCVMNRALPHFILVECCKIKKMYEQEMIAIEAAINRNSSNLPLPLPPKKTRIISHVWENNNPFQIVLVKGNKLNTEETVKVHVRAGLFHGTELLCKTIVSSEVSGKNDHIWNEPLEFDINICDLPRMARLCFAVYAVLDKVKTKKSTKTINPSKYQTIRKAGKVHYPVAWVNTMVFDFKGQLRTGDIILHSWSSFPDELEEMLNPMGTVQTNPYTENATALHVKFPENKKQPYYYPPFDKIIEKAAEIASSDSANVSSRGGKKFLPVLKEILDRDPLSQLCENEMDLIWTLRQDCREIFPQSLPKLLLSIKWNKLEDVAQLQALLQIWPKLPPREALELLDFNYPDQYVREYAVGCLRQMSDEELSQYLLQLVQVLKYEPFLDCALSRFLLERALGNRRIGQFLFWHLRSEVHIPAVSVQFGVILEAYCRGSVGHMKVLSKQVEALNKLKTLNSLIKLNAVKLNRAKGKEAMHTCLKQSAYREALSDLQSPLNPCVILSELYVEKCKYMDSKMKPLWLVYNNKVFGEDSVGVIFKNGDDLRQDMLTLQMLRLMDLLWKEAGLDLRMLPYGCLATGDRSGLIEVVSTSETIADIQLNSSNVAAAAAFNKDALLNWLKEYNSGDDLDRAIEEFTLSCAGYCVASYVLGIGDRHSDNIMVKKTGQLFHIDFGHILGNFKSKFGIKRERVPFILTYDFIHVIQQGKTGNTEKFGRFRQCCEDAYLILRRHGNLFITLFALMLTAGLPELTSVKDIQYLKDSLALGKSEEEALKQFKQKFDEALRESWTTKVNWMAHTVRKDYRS

SMILES	Activity [2]	solubility thermodynamic [4]	inhibition (INH) [5]	permeability [6]	inhibition (INH) [7]	Activity [8]	inhibition (INH) [11]	Activity [12]	inhibition (INH) [13]	Activity [14]	inhibition (INH) [15]	inhibition (INH) [16]	Activity [17]	Activity [18]	Activity [19]	also measured
CC(C)(C)NS(=O)(=O)c1cncc(-c2cc(F)c3nc(N)nn3c2)c1	38%	< 5 µg/mL	Not Active	permeable	Not Active	Non-toxic	Not Active	Non-toxic	Not Active	Non-toxic	Not Active	Not Active	Non-toxic	Non-toxic	Non-toxic	bioavailability [1]: 37%; clearance [3]: 14 mL/min/kg; IC50 [9]: > 10 µM; IC50 [10]: 1.26 µM; Ratio IC50 [20]: 100; Ratio IC50 [21]: 100
CC(C)(C)NS(=O)(=O)c1cncc(-c2ccc3nc(N)nn3c2)c1	53%	9 µg/mL (≈ 26 µM)	Not Active	permeable	Not Active	Non-toxic	Not Active	Non-toxic	Not Active	Non-toxic	Not Active	Not Active	Non-toxic	Non-toxic	Non-toxic	clearance [22]: 11.5 mL/min/kg; half-life [23]: > 45 min; half-life [24]: > 45 min; bioavailability [25]: 88%; IC50 [26]: 2 µM; half-life [27]: > 45 min
